Values of other authors in patent US6423339B1, “Liquisolid systems and methods of preparing same” (priority 1996, dated 2002).

Assays:
[1] = diuretic

In the case of `Cc1ccc(C)c(OCCCC(C)(C)C(=O)O)c1` [Gemflbrozil], the “Solubility in water (descriptive)” value is given as “practically water-insoluble (1 part solute into 10,000 or more parts of water)”.

For `CC(=O)S[C@@H]1CC2=CC(=O)CC[C@]2(C)[C@H]2CC[C@@]3(C)[C@@H](CC[C@@]34CCC(=O)O4)[C@H]12` [Spironolactone], the “Solubility in alcohol (descriptive)” value is listed as “soluble”, the “Solubility in chloroform (descriptive)” value is listed as “freely soluble” and the “Solubility in fixed oils (descriptive)” value is listed as “slightly soluble”. For the same compound, the “Solubility in water (descriptive)” value was “practically insoluble”.

For `CN1C(CCl)Nc2cc(Cl)c(S(N)(=O)=O)cc2S1(=O)=O` (centres unmarked) [Methyclothiazide], the “Solubility in acetone (descriptive)” value is listed as “freely soluble”, the pka is listed as 9.4 and the “Volume of alcohol in which 1 gram of drug is soluble” value (per 1 gram of drug) is listed as 92.5 mL. For the same compound, the “Volume of chloroform in which 1 gram of drug is soluble” value (per 1 gram of drug) was “more than 10,000 ml”, the “Volume of ether in which 1 gram of drug is soluble” value (per 1 gram of drug) was 2,700 ml and the “Volume of water in which 1 gram of drug is soluble” value (per 1 gram of drug) was “more than 10,000 ml”.

In the case of `C[C@]12C=CC(=O)C=C1CC[C@@H]1[C@@H]2C(=O)C[C@@]2(C)[C@H]1CC[C@]2(O)C(=O)CO` [Prednisone], the “Solubility in water (descriptive)” value is given as “very slightly soluble”, the “Volume of alcohol in which 1 gram of drug is soluble” value (per 1 gram of drug) is given as 150 mL and the “Volume of chloroform in which 1 gram of drug is soluble” value (per 1 gram of drug) is given as 200 mL.

For `NS(=O)(=O)c1cc2c(cc1Cl)NCNS2(=O)=O` [Hydrochlorothiazide], the “Potency relative to chlorothiazide” value [1] is listed as 10 times.

For `CCOC(=O)C(C)(C)Oc1ccc(Cl)cc1` [Clofibrate], the “Solubility in alcohol (descriptive)” value is listed as “soluble”, the “Solubility in chloroform (descriptive)” value is listed as “soluble” and the “Solubility in other common organic solvents (descriptive)” value is listed as “soluble”. The “Solubility in water (descriptive)” value was “insoluble (1 part solute into 10,000 or more parts of water)” and the “Stability (descriptive)” value (liquid drug) was “stable”.
